Key:
[1] = Cytotoxicity (Cell Counting Kit-8, 3 days); type: cell-based, bovine; conditions: bovine, Madin–Darby bovine kidney (MDBK) cells, 37 °C, mean ± SD of triplicate
Description: (§1) Additionally, Madin–Darby bovine kidney cells were cultivated (density, 1 × 10^4 cells/mL) in a 96-well cell culture plate (Thermo Fisher Scientific) with the analogs, at seven different concentrations for 3 days at 37 °C. Next, 10 µl of the Cell Counting Kit-8 solution (Dojindo, Kumamoto, Japan) was added into each well […] 4 h of incubation. Absorbance was measured at 450 nm using a GloMax®-Multi+Detection System plate reader.
(§2) The half maximum inhibitory concentration (IC50) of each analog in trypanosomes and the Madin–Darby bovine kidney cells was calculated using the GraphPad Prism version 8 software (GraphPad, Inc., San Diego, CA, USA).

[2] = tested on: mycobacterial; parameters: method as in PMID 32044516; conditions: more potent than nitrofurantoin; cited from earlier work
[3] = tested on: T. congolense IL3000; assay: In vitro trypanocidal activity (CellTiter-Glo, 3 days); type: cell-based; conditions: Trypanosoma congolense, 72 h, bloodstream forms, 33 °C, mean ± SD of triplicate, read-out: Trypanocidal Activity IC50 ± SD, Tc IL3000
Description: (§3) The bloodstream forms of T. b. brucei GUTat3.1, T. b. rhodesiense IL1501, T. b. rhodesiense Chirundu, T. b. gambiense IL1922, and T. evansi Tansui strains were propagated in culture at 37 °C, whereas the T. congolense IL3000 strain was propagated at 33 °C in Hirumi’s modified Iscove’s medium-9, supplemented with 20% heat-inactivated fetal bovine serum. The bloodstream form cultures were maintained by replacing the entire culture supernatant with fresh medium, every other day.
(§4) The trypanocidal activity and cytotoxicity of nitrofurantoin analogs were evaluated according to previous reports, with some modifications. In brief, bloodstream forms adjusted at 2.5 × 10^3 cells/mL (T. b. brucei GUTat3.1, T. b. gambiense IL1922, and T. b. rhodesiense IL1501), 1 × 10^4 cells/mL (T. evansi Tansui and T. b. rhodesiense Chirundu), and 1 × 10^5 cells/mL (T. congolense IL3000), were cultivated in Nunc® MicroWell 96-well optical bottom plates (Thermo Fisher Scientific, Waltham, MA, USA) and exposed to various analogs at seven different concentrations for 3 days, in an incubator at 37 °C (33 °C for T. congolense IL3000). […] Twenty-five microliters of the Cell-TiterGlo® (Promega, Madison, WI, USA) reagent was added into each well, and bioluminescence was measured using a GloMax®-Multi+Detection System plate reader (Promega).
as §2

[4] = tested on: T. evansi Tansui; assay: as above; type: cell-based; conditions: 72 h, bloodstream forms, 37 °C, mean ± SD of triplicate, read-out: Trypanocidal Activity IC50 ± SD, Tev Tansui
Description: as §3, §4, §2

[5] = tested on: T. b. rhodesiense Chirundu; assay: as above; type: cell-based; conditions: Trypanosoma brucei, 72 h, bloodstream forms, 37 °C, mean ± SD of triplicate, read-out: Trypanocidal Activity IC50 ± SD, Tbr Chirundu
Description: as §3, §4, §2

[6] = tested on: T. b. rhodesiense IL1501; assay: as above; type: cell-based; conditions: Trypanosoma brucei, 72 h, bloodstream forms, 37 °C, mean ± SD of triplicate, read-out: Trypanocidal Activity IC50 ± SD, Tbr IL1501
Description: as §3, §4, §2

[7] = tested on: T. b. gambiense IL1922; assay: as above; type: cell-based; conditions: Trypanosoma brucei, 72 h, bloodstream forms, 37 °C, mean ± SD of triplicate, read-out: Trypanocidal Activity IC50 ± SD, Tbg IL1922
Description: as §3, §4, §2

[8] = tested on: T. b. brucei GUTat3.1; assay: as above; type: cell-based; conditions: Trypanosoma brucei, 72 h, bloodstream forms, 37 °C, mean ± SD of triplicate, read-out: Trypanocidal Activity IC50 ± SD, Tbb GUTat3.1
Description: as §3, §4, §2

[9] = tested on: T. congolense IL3000; assay: In vivo treatment efficacy in mice infected with T. congolense; parameters: species or system BALB/c mice; conditions: for time by which all mice died because of high parasitemia: intraperitoneal injection at 0.1 mg/kg; for time by which all mice died because of high parasitemia / time by which all mice succumbed to high parasite levels: 7 consecutive days from 2 dpi
Description: Healthy female 8-week-old BALB/c mice (CLEA Japan, Inc., Tokyo, Japan) were used in this study. All animals had ad libitum access to normal chow and water.
The virulent T. congolense IL3000 strain was propagated in a mouse and used for infection. The parasites were passaged once in a mouse before the experiment. The experimental mice were intraperitoneally infected with 100 μL of T. congolense in phosphate-buffered saline, containing 10% glucose at 1 × 10^3 cells/mouse. First, the mice were randomly divided into six groups of three mice, each as follows. Group I (no treatment), mice were not infected and were only treated with solvent (10% dimethyl sulfoxide–phosphate–buffered saline). Group II received 3.5 mg/kg of diminazene aceturate treatment. Groups III (9), IV (11), V (12), and VI were treated with nitrofurantoin and the mice were infected and intraperitoneally treated with 0.1 mg/kg of the compound.
In the second experiment, the mice were randomly divided into six groups of three mice, each as follows—group I received no treatment; group II received 3.5 mg/kg of diminazene aceturate treatment; and groups III (9), IV (11), V (12), and VI received nitrofurantoin—the mice were infected and orally treated with 10 mg/kg of the compound.
Treatment was initiated at 2 days post-infection (dpi) and continued for seven consecutive days. The treatments were freshly prepared each day. Parasitemia was observed using a cell counting chamber until 14 dpi.

[10] = tested on: Madin–Darby bovine kidney cells; assay: Cytotoxicity (Cell Counting Kit-8, 3 days); type: cell-based; conditions: MDBK cells, 37 °C, mean ± SD of triplicate
Description: as §1, §2

[11] = tested on: six species/strains of animal and human trypanosomes; assay: In vitro trypanocidal activity, summary over all strains; type: cell-based; conditions: over the six trypanosome species/strains
Description: as §3
The trypanocidal activity and cytotoxicity of nitrofurantoin analogs were evaluated according to previous reports, with some modifications. […] Twenty-five microliters of the Cell-TiterGlo® (Promega, Madison, WI, USA) reagent was added into each well, and bioluminescence was measured using a GloMax®-Multi+Detection System plate reader (Promega).
as §2

[12] = after both oral (10 mg/kg) and intraperitoneal (0.1 mg/kg) administration
[13] = oral, 10 mg/kg, T. congolense-infected mice

Row | Structure (SMILES) | IC50 at 3 days [1] [nM] | anti-mycobacterial potency relative to nitrofurantoin [2] [fold] | IC50 [3] [nM] | IC50 [4] [nM] | IC50 [5] [nM] | IC50 [6] [nM] | IC50 [7] [nM] | IC50 [8] [nM] | treatment efficacy against T. congolense infection in vivo [9, 12] | time by which all mice died because of high parasitemia ([9]; T. congolense-infected mice) [dpi] | time by which all mice succumbed to high parasite levels [9, 13] [dpi] | IC50 [10] [nM] | IC50 [11] [nM] | treatment efficacy against T. congolense infection in vivo ([9]; oral treatment, 10 mg/kg) | mice surviving until end of the experiment period ([9]; oral, 10 mg/kg, three mice per group, observed until 14 dpi) | parasitemia ([9]; group II, 3.5 mg/kg, T. congolense-infected mice)
1 | CCCCCCCCN1C(=O)CN(/N=C/c2ccc([N+](=O)[O-])o2)C1=O [Analog 8, (E)-1-([(5-Nitrofuran-2-yl)methylene]amino)-3-octylimidazolidine-2,4-dione] | 84700 ± 8990 | 30 | 30 ± 5 | 810 ± 82 | 39 ± 8.4 | 1380 ± 820 | 1400 ± 730 | 1890 ± 690 |  |  |  |  |  |  |  | 
2 | CCCCCCCCCN1C(=O)CN(/N=C/c2ccc([N+](=O)[O-])o2)C1=O [Analog 9, (E)-1-([(5-Nitrofuran-2-yl)methylene]amino)-3-nonylimidazolidine-2,4-dione] | 251000 ± 58300 |  | 10 ± 3.5 | 270 ± 25 | 17 ± 6.7 | 600 ± 540 | 440 ± 170 | 570 ± 220 | no treatment efficacy | ≤ 9 | ≤ 9 |  |  |  |  | 
3 | CCCCCCCCCCCN1C(=O)CN(/N=C/c2ccc([N+](=O)[O-])o2)C1=O [Analog 11, (E)-1-([(5-Nitrofuran-2-yl)methylene]amino)-3-undecylimidazolidine-2,4-dione] | > 246000 |  | 11 ± 3.5 | 160 ± 14 | 21 ± 9.4 | 240 ± 130 | 330 ± 120 | 330 ± 120 | no treatment efficacy | ≤ 9 | ≤ 9 | > 255000 | < 340 |  |  | 
4 | CCCCCCCCCCCCN1C(=O)CN(/N=C/c2ccc([N+](=O)[O-])o2)C1=O [Analog 12, (E)-3-Dodecyl-1-([(5-nitrofuran-2-yl)methylene]amino)imidazolidine-2,4-dione] | > 246000 |  | 12 ± 4.5 | 200 ± 17 | 31 ± 11 | 260 ± 110 | 230 ± 130 | 340 ± 120 | no treatment efficacy | ≤ 9 | ≤ 9 |  | < 340 |  |  | 
5 | O=C1CN(/N=C/c2ccc([N+](=O)[O-])o2)C(=O)N1 [Nitrofurantoin] |  |  | 360 ± 43 | 1960 ± 500 |  | 1420 ± 250 | 1620 ± 280 | 1420 ± 150 |  | ≤ 9 |  |  |  | partial efficacy | two of three | 
6 | CC(=O)NCC(=O)O.CC(=O)NCC(=O)O.N=C(N)c1ccc(N=NNc2ccc(C(=N)N)cc2)cc1 [diminazene aceturate, reference compound] |  |  |  |  |  |  |  |  |  |  |  |  |  |  |  | not observed

Source: article PMC8199755, “In Vitro and In Vivo Trypanocidal Efficacy of Synthesized Nitrofurantoin Analogs” (Molecules, 2021)
